Calls of active or inactive are those of the source. No cut-off for these calls is given here.
These compounds were tested on MM1.S (assay: Antiproliferative activity against human MM1.S cells assessed as inhibition of cell growth incubated for 72 hrs by celltiter-glo assay).
Assay type: functional, cell-based

IC50 [nM] | Structure (SMILES) | Activity
346 | NC(=O)/C(=C/n1cnc(-c2cc(C(F)(F)F)cc(C(F)(F)F)c2)n1)c1ccccc1 | 
202 | CONC(=O)/C(=C/n1cnc(-c2cc(C(F)(F)F)cc(C(F)(F)F)c2)n1)c1ccncc1 | 
447 | NC(=O)/C(=C/n1cnc(-c2cc(C(F)(F)F)cc(C(F)(F)F)c2)n1)c1cccc2cccnc12 | 
1410 | N#Cc1ccc(/C(=C\c2cnn(-c3cc(C(F)(F)F)cc(C(F)(F)F)c3)c2)C(N)=O)cn1 | 
1220 | N#Cc1cn(/C=C(/C(N)=O)c2cncnc2)nc1-c1cc(C(F)(F)F)cc(C(F)(F)F)c1 | 
 | Cc1ccc(/C(=C\n2cnc(-c3cc(C(F)(F)F)cc(C(F)(F)F)c3)n2)C(N)=O)cn1 | inactive
245 | Cc1ccc(/C(=C\n2cnc(-c3cc(C(F)(F)F)nc(C(F)(F)F)c3)n2)C(N)=O)cn1 | 
185 | CONC(=O)/C(=C/n1cnc(-c2cc(C(F)(F)F)cc(C(F)(F)F)c2)n1)c1ccc(C#N)nc1 | 
1400 | O=C(NCc1cccnc1)/C(=C/n1cnc(-c2cc(C(F)(F)F)cc(C(F)(F)F)c2)n1)c1cncnc1 | 
2260 | COc1ncc(/C(=C\c2cnn(-c3cc(C(F)(F)F)cc(C(F)(F)F)c3)c2)C(N)=O)cn1 | 
1660 | NC(=O)/C(=C/n1cnc(-c2cc(C(F)(F)F)cc(C(F)(F)F)c2)n1)c1ccc(C(F)(F)F)nc1 | 
128 | NC(=O)/C(=C/n1cnc(-c2cc(C(F)(F)F)cc(C(F)(F)F)c2)n1)c1ccncc1 | 
259 | NC(=O)/C(=C/n1cnc(-c2cc(C(F)(F)F)cc(C(F)(F)F)c2)n1)c1cncc(F)c1 | 
 | Cc1cn(/C=C(/C(N)=O)c2cncnc2)nc1-c1cc(C(F)(F)F)cc(C(F)(F)F)c1 | inactive
 | COc1ncc(/C(=C\C(N)=O)c2cnn(-c3cc(C(F)(F)F)cc(C(F)(F)F)c3)c2)cn1 | inactive
 | NC(=O)/C=C(\c1cncnc1)c1cnn(-c2cc(C(F)(F)F)cc(C(F)(F)F)c2)c1 | inactive
226 | NC(=O)/C(=C/n1cnc(-c2cc(C(F)(F)F)nc(C(F)(F)F)c2)n1)c1cncnc1 | 

IC50 [nM] | Structure (SMILES) | Activity
2360 | NC(=O)/C(=C/c1cnn(-c2cc(C(F)(F)F)cc(C(F)(F)F)c2)c1)c1cncc(F)c1 | 
111 | CCONC(=O)/C(=C/n1cnc(-c2cc(C(F)(F)F)cc(C(F)(F)F)c2)n1)c1cncnc1 | 
198 | CONC(=O)/C(=C/n1cnc(-c2cc(C(F)(F)F)nc(C(F)(F)F)c2)n1)c1cncnc1 | 
1310 | CN(C)c1ncc(/C(=C\n2cnc(-c3cc(C(F)(F)F)cc(C(F)(F)F)c3)n2)C(N)=O)cn1 | 
207 | CONC(=O)/C(=C/n1cnc(-c2cc(C(F)(F)F)nc(C(F)(F)F)c2)n1)c1ccc(C)nc1 | 
292 | O=C(NC1CCCC1)/C(=C/n1cnc(-c2cc(C(F)(F)F)cc(C(F)(F)F)c2)n1)c1cncnc1 | 
1340 | NC(=O)/C(=C/c1cnn(-c2cc(C(F)(F)F)cc(C(F)(F)F)c2)c1)c1ccc(C(F)(F)F)nc1 | 
323 | O=C(NC12CC3CCC1CC(C3)C2)/C(=C/n1cnc(-c2cc(C(F)(F)F)cc(C(F)(F)F)c2)n1)c1cncnc1 (stereo not drawn) | 
572 | O=C(NC1CCCCC1)/C(=C/n1cnc(-c2cc(C(F)(F)F)cc(C(F)(F)F)c2)n1)c1cncnc1 | 
 | NC(=O)/C=C(\c1ccncc1)c1cnn(-c2cc(C(F)(F)F)cc(C(F)(F)F)c2)c1 | inactive
 | NC(=O)/C(=C/c1cnn(-c2cc(C(F)(F)F)cc(C(F)(F)F)c2)c1)c1ccc(F)nc1 | inactive
 | CN(C)c1ncc(/C(=C\C(N)=O)c2cnn(-c3cc(C(F)(F)F)cc(C(F)(F)F)c3)c2)cn1 | inactive
880 | N#Cc1ccc(/C(=C\n2ccc(-c3cc(C(F)(F)F)cc(C(F)(F)F)c3)n2)C(N)=O)cn1 | 
 | NC(=O)/C=C(\c1ccc(C(F)(F)F)nc1)c1cnn(-c2cc(C(F)(F)F)cc(C(F)(F)F)c2)c1 | inactive
 | CN(C)c1ncc(/C(=C\c2cnn(-c3cc(C(F)(F)F)cc(C(F)(F)F)c3)c2)C(N)=O)cn1 | inactive
1040 | CONC(=O)/C(=C/n1cnc(-c2cc(C(F)(F)F)cc(C(F)(F)F)c2)n1)c1ccc(C#N)cc1 | 
